Target: T1, hDGAT1 (Homo sapiens, UniProt O75907)
T1 sequence (O75907 1-488): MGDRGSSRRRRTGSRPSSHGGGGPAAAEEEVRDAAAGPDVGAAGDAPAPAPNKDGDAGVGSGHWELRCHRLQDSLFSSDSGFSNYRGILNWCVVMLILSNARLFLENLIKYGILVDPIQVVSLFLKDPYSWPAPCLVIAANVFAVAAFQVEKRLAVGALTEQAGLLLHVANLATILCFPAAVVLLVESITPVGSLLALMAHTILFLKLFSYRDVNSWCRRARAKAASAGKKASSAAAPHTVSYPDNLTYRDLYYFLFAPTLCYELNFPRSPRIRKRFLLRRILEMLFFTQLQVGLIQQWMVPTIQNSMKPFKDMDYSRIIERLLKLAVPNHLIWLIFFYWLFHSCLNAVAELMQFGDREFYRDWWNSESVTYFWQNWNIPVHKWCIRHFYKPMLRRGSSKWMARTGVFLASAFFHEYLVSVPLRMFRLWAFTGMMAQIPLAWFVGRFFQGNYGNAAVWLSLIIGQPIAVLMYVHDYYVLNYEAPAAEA
Assay: In-vitro DGAT1 assay (14C oleoyl CoA, hDGAT1 microsomes from Sf9 cells)
Details: at 1 μM

Row | SMILES | % Inhibition of hDGAT1
1 | O=C(Nc1ccc(-c2ccc3c(c2)C(=O)N([C@H]2CC[C@H](C(=O)O)CC2)C3)cc1)c1cccc(Cl)c1 [Example 559, (1r,4r)-4-(6-(4-(3-Chlorobenzamido)phenyl)-1-oxoisoindolin-2-yl)cyclohexane carboxylic acid] | ++ (>50% Inhibition)

Same assay, conditions: read-out: % Inhibition of hDGAT1

Row | SMILES | inhibition at 1 µM
2 | CC(C)[C@@H](C(=O)O)N1Cc2ccc(-c3ccc(NC(=O)c4cc(-c5ccc(C(F)(F)F)cc5)no4)cc3)cc2C1=O [Example 620, (S)-3-Methyl-2-(1-oxo-6-(4-(3-(4-(trifluoromethyl)phenyl)isoxazole-5-carboxamido)phenyl)isoindolin-2-yl)butanoic acid] | > 50%
3 | CC(C)[C@@H](C(=O)O)N1Cc2ccc(-c3ccc(NC(=O)c4ccc(F)c(F)c4)cc3)cc2C1=O [Example 140, (S)-2-(6-(4-(3,4-Difluorobenzamido)phenyl)-1-oxoisoindolin-2-yl)-3-methyl butanoic acid] | > 50%
4 | CC(C)[C@@H](C(=O)O)N1Cc2ccc(-c3ccc(NC(=O)c4ccc(N5CCCC5)nc4)cc3)cc2C1=O [Example 217, (S)-3-Methyl-2-(1-oxo-6-(4-(6-(pyrrolidin-1-yl)nicotinamido)phenyl)isoindolin-2-yl)butanoic acid] | > 50%
5 | O=C(Nc1ccc(-c2ccc3c(c2)CN([C@H](C(=O)O)c2ccccc2)C3=O)cc1)Nc1cccc(C(F)(F)F)c1 [Example 373, (S)-2-(1-Oxo-5-(4-(3-(3-(trifluoromethyl)phenyl)ureido)phenyl)isoindolin-2-yl)-2-phenylacetic acid] | 10 to 50%
6 | CC(C)C[C@@H](C(=O)O)N1Cc2cc(-c3ccc(NC(=O)Nc4cccc(C(F)(F)F)c4)cc3)ccc2C1=O [Example 388, (S)-4-Methyl-2-(1-oxo-5-(4-(3-(3-(trifluoromethyl)phenyl)ureido)phenyl)isoindolin-2-yl)pentanoic acid] | 10 to 50%
7 | CC(C)[C@@H](C(=O)O)N1Cc2ccc(-c3ccc(NC(=O)Nc4ccc(F)c(F)c4)cc3C(F)(F)F)cc2C1=O [Example 418, (S)-2-(6-(4-(3-(3,4-Difluorophenyl)ureido)-2-(trifluoromethyl)phenyl)-1-oxoisoindolin-2-yl)-3-methylbutanoic acid] | 10 to 50%
8 | CC(C)[C@@H](C(=O)O)N1Cc2cc(-c3ccc(NS(=O)(=O)c4ccc(F)cc4F)cc3)ccc2C1=O [Example 291, (S)-2-(5-(4-(2,4-Difluorophenylsulfonamido)phenyl)-1-oxoisoindolin-2-yl)-3-methylbutanoic acid] | 10 to 50%
9 | CC(C)[C@@H](C(=O)O)N1Cc2ccc(-c3ccc(NC(=O)C4CCCCC4)cc3)cc2C1=O [Example 118, (S)-2-(6-(4-(Cyclohexanecarboxamido)phenyl)-1-oxoisoindolin-2-yl)-3-methylbutanoic acid] | > 50%
10 | CC(C)[C@@H](C(=O)O)N1Cc2ccc(-c3ccc(NC(=O)Nc4ccc(C(F)(F)F)cc4)cc3)cc2C1=O [Example 36, (S)-3-Methyl-2-(1-oxo-6-(4-(3-(4-(trifluoromethyl)phenyl)ureido)phenyl)isoindolin-2-yl)butanoic acid] | > 50%
11 | CC(C)[C@@H](C(=O)O)N1Cc2cc(-c3ccc(NC(=S)Nc4ccc(Cl)cc4)cc3)ccc2C1=O [Example 265, (S)-2-(5-(4-(3-(4-Chlorophenyl)thioureido)phenyl)-1-oxoisoindolin-2-yl)-3-methylbutanoic acid] | 10 to 50%
12 | CC(C)[C@H](C(=O)O)N1Cc2ccc(-c3ccc(NC(=O)Nc4cccc(C(F)(F)F)c4)cc3)cc2C1=O [Example 331, (R)-3-Methyl-2-(1-oxo-6-(4-(3-(3-(trifluoromethyl)phenyl)ureido)phenyl)isoindolin-2-yl)butanoic acid] | > 50%
13 | CCCCCc1ccc(C(=O)Nc2ccc(-c3ccc4c(c3)C(=O)N(C3(C(=O)O)CCCC3)C4)cc2)cc1 [Example 537, 1-(1-Oxo-6-(4-(4-pentylbenzamido)phenyl)isoindolin-2-yl)cyclopentane carboxylic acid] | > 50%
14 | CC(C)[C@@H](C(=O)O)N1Cc2ccc(-c3ccc(NC(=O)c4c(Cl)cccc4Cl)cc3)cc2C1=O [Example 130, (S)-2-(6-(4-(2,6-Dichlorobenzamido)phenyl)-1-oxoisoindolin-2-yl)-3-methyl butanoic acid] | 10 to 50%
15 | CCOc1cc(OCC)cc(C(=O)Nc2ccc(-c3ccc4c(c3)C(=O)N([C@H](C(=O)O)C(C)C)C4)cc2)c1 [Example 146, (S)-2-(6-(4-(3,5-Diethoxybenzamido)phenyl)-1-oxoisoindolin-2-yl)-3-methyl butanoic acid] | > 50%
16 | CC(C)[C@@H](C(=O)O)N1Cc2ccc(-c3ccc(NC(=O)Nc4c(F)cccc4F)cc3)cc2C1=O [Example 20, (S)-2-(6-(4-(3-(2,6-Difluorophenyl)ureido)phenyl)-1-oxoisoindolin-2-yl)-3-methylbutanoic acid] | 10 to 50%
17 | CCCCCc1ccc(C(=O)Nc2ccc(-c3ccc4c(c3)C(=O)N([C@H](C(=O)O)C(C)C)C4)c(Cl)c2)cc1 [Example 486, (S)-2-(6-(2-Chloro-4-(4-pentylbenzamido)phenyl)-1-oxoisoindolin-2-yl)-3-methylbutanoic acid] | > 50%
18 | CC(C)[C@@H](C(=O)O)N1Cc2ccc(-c3ccc(NC(=O)c4ccc(N5CCCCC5)nc4)cc3)cc2C1=O [Example 215, (S)-3-Methyl-2-(1-oxo-6-(4-(6-(piperidin-1-yl)nicotinamido)phenyl)isoindolin-2-yl)butanoic acid] | > 50%
19 | Cc1oc(-c2ccccc2)nc1C(=O)Nc1ccc(-c2ccc3c(c2)C(=O)N(C2CCCC(C(=O)O)C2)C3)cc1 (stereo not drawn) [Example 553, 3-(6-(4-(5-Methyl-2-phenyloxazole-4-carboxamido)phenyl)-1-oxoisoindolin-2-yl)cyclohexanecarboxylic acid] | > 50%
20 | CC(C)[C@@H](C(=O)O)N1Cc2cc(-c3ccc(NC(=S)Nc4cccc(F)c4)cc3)ccc2C1=O [Example 259, (S)-2-(5-(4-(3-(3-Fluorophenyl)thioureido)phenyl)-1-oxoisoindolin-2-yl)-3-methyl butanoic acid] | 10 to 50%
21 | CC(C)[C@@H](C(=O)O)N1Cc2ccc(-c3ccc(NC(=O)NCc4ccccc4)cc3)cc2C1=O [Example 18, (S)-2-(6-(4-(3-Benzylureido)phenyl)-1-oxoisoindolin-2-yl)-3-methylbutanoic acid] | 10 to 50%
22 | CCCCCc1ccc(C(=O)Nc2ccc(-c3ccc4c(c3)C(=O)N([C@H](C(=O)O)C(C)C)C4)c(C)c2)cc1 [Example 474, (S)-3-Methyl-2-(6-(2-methyl-4-(4-pentylbenzamido)phenyl)-1-oxoisoindolin-2-yl)butanoic acid] | > 50%
23 | CC(C)[C@@H](C(=O)O)N1Cc2ccc(-c3ccc(NC(=O)c4ccc(C(C)(C)C)cc4)cc3C(F)(F)F)cc2C1=O [Example 424, (S)-2-(6-(4-(4-tert-Butylbenzamido)-2-(trifluoromethyl)phenyl)-1-oxoisoindolin-2-yl)-3-methylbutanoic acid] | 10 to 50%
24 | COc1ccc(S(=O)(=O)Nc2ccc(-c3ccc4c(c3)C(=O)N([C@H](C(=O)O)C(C)C)C4)cc2)cc1OC [Example 86, (S)-2-(6-(4-(3,4-Dimethoxyphenylsulfonamido)phenyl)-1-oxoisoindolin-2-yl)-3-methylbutanoic acid] | 10 to 50%

From patent US8748426B2, “Inhibitors of diacylglycerol acyl transferase” (Piramal Enterprises Limited, priority 2009, dated 2014)
